Data: US20210395248A1, “INHIBITORS OF HUMAN IMMUNODEFICIENCY VIRUS REPLICATION” (ViiV HEALTHCARE UK (NO.5) LIMITED, priority 2018, published 2021)

What was measured:
[1] = Compound cytotoxicity, XTT-based colorimetric assay; format: cell-based; details: human; uninfected MT2 cells, day 4, XTT; read-out: CC50
Protocol: Compound cytotoxicity and the corresponding CC50 values were determined using the same protocol as described in the antiviral assay except that uninfected cells were used. Cytotoxicity was assessed on day 4 in uninfected MT2 cells by using a XTT (2,3-bis [2-Methoxy-4-nitro-5-sulfophenyl]-2H-tetrazolium-5-carboxyanilide inner salt)-based colorimetric assay (Sigma-Aldrich, St Louis, Mo.).

[2] = tested on: recombinant NL4-3 virus (Renilla luciferase reporter) in MT-2 cells; experiment: HIV cell culture assay (antiviral activity, luciferase readout in infected MT-2 cells); format: cell-based; details: NL43
Protocol: HIV cell culture assay—MT-2 cells, 293T cells and the proviral DNA clone of NL4-3 virus were obtained from the NIH AIDS Research and Reference Reagent Program. MT-2 cells were propagated in RPMI 1640 media supplemented with 10% heat inactivated fetal bovine serum (FBS), […]. The 293T cells were propagated in DMEM media supplemented with 10% heat inactivated FBS, […]. A recombinant NL4-3 proviral clone, in which a section of the nef gene was replaced with the Renilla luciferase gene, was used to make the reference virus used in these studies. The recombinant virus was prepared through transfection of the recombinant NL4-3 proviral clone into 293T cells using Transit-293 Transfection Reagent from Mirus Bio LLC (Madison, Wis.). Supernatent was harvested after 2-3 days and the amount of virus present was titered in MT-2 cells using luciferase enzyme activity as a marker by measuring luciferase enzyme activity. Luciferase was quantitated using the EnduRen Live Cell Substrate from Promega (Madison, Wis.). Antiviral activities of compounds toward the recombinant virus were quantified by measuring luciferase activity in MT-2 cells infected for 4-5 days with the recombinant virus in the presence of serial dilutions of the compound.
The 50% effective concentration (EC50) was calculated by using the exponential form of the median effect equation where (Fa)=1/[1+(EC50/drug conc.)m] (Johnson V A, Byington RT. Infectivity Assay. In Techniques in HIV Research, ed. Aldovini A, Walker B D. 71-76. New York: Stockton Press. 1990). The 50% inhibitory concentration (EC50) was calculated by using the exponential form of the median effect equation where percent inhibition=1/[1+(EC50/drug concentration)m], where m is a parameter that reflects the slope of the concentration-response curve.

For `Cn1nc(NS(C)(=O)=O)c2c(Cl)ccc(-n3c([C@H](Cc4cc(F)cc(F)c4)NC(=O)Cn4nc(C(F)F)c5c4C(F)(F)[C@@H]4C[C@H]54)nc4nc(NCCC(F)F)ccc4c3=O)c21` (atropisomer, axis not shown; (P)) [Example 34, N—((S)-1-((3P)-3-(4-chloro-1-methyl-3-(methylsulfonamido)-1H-indazol-7-yl)-7-((3,3-difluoropropyl)amino)-4-oxo-3,4-dihydropyrido[2,3-d]pyrimidin-2-yl)-2-(3,5-difluorophenyl)ethyl)-2-((3bS,4aR)-3-(difluoromethyl)-5,5-difluoro-3b,4,4a,5-tetrahydro-1H-cyclopropa[3,4]cyclopenta[1,2-c]pyrazol-1-yl)acetamide], the CC50 at 4 days [1] was over 100000 pM and the EC50 [2] was 55 pM.
Work on `C[C@@H]1CN(c2ccc3c(=O)n(-c4ccc(Cl)c5c(NS(C)(=O)=O)nn(CC(F)(F)F)c45)c([C@H](Cc4cc(F)cc(F)c4)NC(=O)Cn4ccc(C5CC5)n4)nc3n2)C[C@H](C)O1` (atropisomer, axis not shown; (P)) [Example 17, N—((S)-1-((3P)-3-(4-chloro-3-(methylsulfonamido)-1-(2,2,2-trifluoroethyl)-1H-indazol-7-yl)-7-((2S,6R)-2,6-dimethylmorpholino)-4-oxo-3,4-dihydropyrido[2,3-d]pyrimidin-2-yl)-2-(3,5-difluorophenyl)ethyl)-2-(3-cyclopropyl-1H-pyrazol-1-yl)acetamide] yielded a CC50 at 4 days [1] of over 500000 pM and an EC50 [2] of 240 pM.
With `Cn1nc(NS(C)(=O)=O)c2c(Cl)ccc(-n3c([C@H](Cc4cc(F)cc(F)c4)NC(=O)Cn4nc(C(F)F)c5c4C(F)(F)[C@@H]4C[C@H]54)nc4nc(N5CCO[C@@H](C(F)(F)F)C5)ccc4c3=O)c21` (atropisomer, axis not shown; (P)) [Example 12, N—((S)-1-((3P)-3-(4-chloro-1-methyl-3-(methylsulfonamido)-1H-indazol-7-yl)-4-oxo-7-((R)-2-(trifluoromethyl)morpholino)-3,4-dihydropyrido[2,3-d]pyrimidin-2-yl)-2-(3,5-difluorophenyl)ethyl)-2-((3bS,4aR)-3-(difluoromethyl)-5,5-difluoro-3b,4,4a,5-tetrahydro-1H-cyclopropa[3,4]cyclopenta[1,2-c]pyrazol-1-yl)acetamide] the CC50 at 4 days [1] was over 100000 pM and the EC50 [2] was 20 pM.
`CN(CCC(F)(F)F)c1ccc2c(=O)n(-c3ccc(Cl)c4c(NS(C)(=O)=O)nn(C)c34)c([C@H](Cc3cc(F)cc(F)c3)NC(=O)Cn3nc(C(F)F)c4c3C(F)(F)[C@@H]3C[C@H]43)nc2n1` (atropisomer, axis not shown; (P)) [Example 30, N—((S)-1-((3P)-3-(4-chloro-1-methyl-3-(methylsulfonamido)-1H-indazol-7-yl)-7-(methyl(3,3,3-trifluoropropyl)amino)-4-oxo-3,4-dihydropyrido[2,3-d]pyrimidin-2-yl)-2-(3,5-difluorophenyl)ethyl)-2-((3bS,4aR)-3-(difluoromethyl)-5,5-difluoro-3b,4,4a,5-tetrahydro-1H-cyclopropa[3,4]cyclopenta[1,2-c]pyrazol-1-yl)acetamide] showed a CC50 at 4 days [1] of over 100000 pM and an EC50 [2] of 32 pM.
`C[C@@H]1CN(c2ccc3c(=O)n(-c4ccc(Cl)c5c(NS(C)(=O)=O)nn(C)c45)c([C@H](Cc4cc(F)cc(F)c4)NC(=O)Cc4ccn(C5CC5)n4)nc3n2)C[C@H](C)O1` (atropisomer, axis not shown; (P)) [Example 15, N—((S)-1-((3P)-3-(4-chloro-1-methyl-3-(methylsulfonamido)-1H-indazol-7-yl)-7-((2S,6R)-2,6-dimethylmorpholino)-4-oxo-3,4-dihydropyrido[2,3-d]pyrimidin-2-yl)-2-(3,5-difluorophenyl)ethyl)-2-(1-cyclopropyl-1H-pyrazol-3-yl)acetamide] showed a CC50 at 4 days [1] of over 100000 pM and an EC50 [2] of 110 pM.
With `Cn1nc(NS(C)(=O)=O)c2c(Cl)ccc(-n3c([C@H](Cc4cc(F)cc(F)c4)NC(=O)Cn4nc(C(F)F)c5c4C(F)(F)[C@@H]4C[C@H]54)nc4nc(NCCCC(F)(F)F)ccc4c3=O)c21` (atropisomer, axis not shown; (P)) [Example 31, N—((S)-1-((3P)-3-(4-chloro-1-methyl-3-(methylsulfonamido)-1H-indazol-7-yl)-4-oxo-7-((4,4,4-trifluorobutyl)amino)-3,4-dihydropyrido[2,3-d]pyrimidin-2-yl)-2-(3,5-difluorophenyl)ethyl)-2-((3bS,4aR)-3-(difluoromethyl)-5,5-difluoro-3b,4,4a,5-tetrahydro-1H-cyclopropa[3,4]cyclopenta[1,2-c]pyrazol-1-yl)acetamide] the CC50 at 4 days [1] was over 100000 pM and the EC50 [2] was 110 pM.
With `C[C@@H]1CN(c2ccc3c(=O)n(-c4ccc(Cl)c5c(NS(C)(=O)=O)nn(C)c45)c([C@H](Cc4cc(F)cc(F)c4)NC(=O)Cn4nc(C(F)F)c5c4C(F)(F)[C@@H]4C[C@H]54)nc3n2)C[C@H](C)O1` (atropisomer, axis not shown; (aR)) [Example 1, N—((S)-1-(3-(4-chloro-1-methyl-3-(methylsulfonamido)-1H-indazol-7-yl)-7-((2S,6R)-2,6-dimethylmorpholino)-4-oxo-3,4-dihydropyrido[2,3-d]pyrimidin-2-yl)-2-(3,5-difluorophenyl)ethyl)-2-((3bS,4aR)-3-(difluoromethyl)-5,5-difluoro-3b,4,4a,5-tetrahydro-1H-cyclopropa[3,4]cyclopenta[1,2-c]pyrazol-1-yl)acetamide] the CC50 at 4 days [1] was over 500000 pM and the EC50 [2] was 41 pM.
For `C[C@@H]1CN(c2ccc3c(=O)n(-c4ccc(Cl)c5c(NS(C)(=O)=O)nn(C)c45)c([C@H](Cc4cc(F)cc(F)c4)NC(=O)Cn4ccc(C5CC5)n4)nc3n2)C[C@H](C)O1` (atropisomer, axis not shown; (P)) [Example 16, N—((S)-1-((3P)-3-(4-chloro-1-methyl-3-(methylsulfonamido)-1H-indazol-7-yl)-7-((2S,6R)-2,6-dimethylmorpholino)-4-oxo-3,4-dihydropyrido[2,3-d]pyrimidin-2-yl)-2-(3,5-difluorophenyl)ethyl)-2-(3-cyclopropyl-1H-pyrazol-1-yl)acetamide], the CC50 at 4 days [1] was over 500000 pM and the EC50 [2] was 200 pM.
With `C[C@@H]1CN(c2ccc3c(=O)n(-c4ccc(Cl)c5c(NS(C)(=O)=O)nn(C)c45)c([C@H](Cc4cc(F)cc(F)c4)NC(=O)Cn4nc(C(F)(F)F)c5c4C(F)(F)[C@@H]4C[C@H]54)nc3n2)C[C@H](C)O1` (atropisomer, axis not shown; (aR)) [Example 2, N—((S)-1-(3-(4-chloro-1-methyl-3-(methylsulfonamido)-1H-indazol-7-yl)-7-((2S,6R)-2,6-dimethylmorpholino)-4-oxo-3,4-dihydropyrido[2,3-d]pyrimidin-2-yl)-2-(3,5-difluorophenyl)ethyl)-2-((3bS,4aR)-5,5-difluoro-3-(trifluoromethyl)-3b,4,4a,5-tetrahydro-1H-cyclopropa[3,4]cyclopenta[1,2-c]pyrazol-1-yl)acetamide] the CC50 at 4 days [1] was over 500000 pM and the EC50 [2] was 36 pM.
Compound `Cn1nc(NS(C)(=O)=O)c2c(Cl)ccc(-n3c([C@H](Cc4cc(F)cc(F)c4)NC(=O)Cn4nc(C(F)F)c5c4C(F)(F)[C@@H]4C[C@H]54)nc4nc(NCCC(F)(F)F)ccc4c3=O)c21` (atropisomer, axis not shown; (P)) [Example 32, N—((S)-1-((3P)-3-(4-chloro-1-methyl-3-(methylsulfonamido)-1H-indazol-7-yl)-4-oxo-7-((3,3,3-trifluoropropyl)amino)-3,4-dihydropyrido[2,3-d]pyrimidin-2-yl)-2-(3,5-difluorophenyl)ethyl)-2-((3bS,4aR)-3-(difluoromethyl)-5,5-difluoro-3b,4,4a,5-tetrahydro-1H-cyclopropa[3,4]cyclopenta[1,2-c]pyrazol-1-yl)acetamide] has a CC50 at 4 days [1] of over 100000 pM and an EC50 [2] of 42 pM.
In the case of `Cn1nc(NS(C)(=O)=O)c2c(Cl)ccc(-n3c([C@H](Cc4cc(F)cc(F)c4)NC(=O)Cn4nc(C(F)F)c5c4C(F)(F)[C@@H]4C[C@H]54)nc4nc(N(CCC(F)(F)F)CC5CC5)ccc4c3=O)c21` (atropisomer, axis not shown; (P)) [Example 14, N—((S)-1-((3P)-3-(4-chloro-1-methyl-3-(methylsulfonamido)-1H-indazol-7-yl)-7-((cyclopropylmethyl)(3,3,3-trifluoropropyl)amino)-4-oxo-3,4-dihydropyrido[2,3-d]pyrimidin-2-yl)-2-(3,5-difluorophenyl)ethyl)-2-((3bS,4aR)-3-(difluoromethyl)-5,5-difluoro-3b,4,4a,5-tetrahydro-1H-cyclopropa[3,4]cyclopenta[1,2-c]pyrazol-1-yl)acetamide], the CC50 at 4 days [1] is reported as over 100000 pM and the EC50 [2] is reported as 110 pM.
